# From patent US12459951B2, “Compounds that interact with RAS superfamily proteins for treatment of cancers, inflammatory diseases, rasopathies, and fibrotic disease” (SHY Therapeutics, LLC, priority 2022, dated 2025)
# Assays:
# [1] = test system: JNK phosphorylation; experiment: JNK Activation Assay (western blot), Panc-1; format: cell-based, human; conditions: at 10 μM, Panc-1 pancreatic cancer cell line; starred symbols = activation
# Method: Protocol for JNK Activation Assay
# This assay is referred to as the “JNK Activation Assay” throughout this application.
# Cell lines: Human tumor-derived pancreatic cancer cell line Panc-1 (expressing KRas […] mutant) was purchased from American Type Culture Collection and grown in complete DMEM-High Glucose medium, supplemented with penicillin (100 U/mL), streptomycin (100 μg/mL), and 10% heat-inactivated FBS at 37° C. in a humidified incubator with 5% CO2.
# Method 1: Cells were plated at 350000 cells/well density in a 12-well plate, allowed 3 hours to adhere to the plate, then starved in the appropriate medium in the presence of 0.5% FBS overnight. The small molecules to be tested were added to the cells in the final concentration of 10 μM in the presence of 0.3% DMSO for 6 hours incubation at 37° C. For IC50 value determination, serial dilutions of compounds were added to cells under the same conditions. Next, cells were stimulated with 1.5 ng/ml EGF for 15 minutes then cells were lysed with lysis buffer containing 1% Triton X-100, EDTA, and Halt™ Protease & Phosphatase Inhibitor Cocktail (Thermo Scientific). Protein concentration was assessed by BCA protein assay (Thermo Scientific). Phosphorylation level of JNK was determined by western blot.
# Method 2: Cells were plated at 350000 cells/well density in a 12-well plate in the presence of 10% FBS. The next day small molecules to be tested were added to the cells in the final concentration of 10 μM in the presence of 0.3% DMSO for 6 hours incubation at 37° C. For IC50 value determination, serial dilutions of compounds were added to cells under the same conditions. Next, cells were lysed with lysis buffer containing 1% Triton X-100, EDTA, and Halt™ Protease & Phosphatase Inhibitor Cocktail (Thermo Scientific). Protein concentration was assessed by BCA protein assay (Thermo Scientific). Phosphorylation level of JNK was determined by western blot.
# Western blot protocol: Equal amounts of protein (15-50 μg) were separated by SDS-PAGE and transferred to nitrocellulose membranes (Invitrogen by Thermo Fisher Scientific). The membrane was stained with Ponceau S Stain (Boston BioProducts) to verify uniform protein loading. Membranes were blocked with 10% milk and phosphorylation levels of JNK were assessed by incubating overnight at 4° C. with the antibody Phospho-SAPK/JNK (Thr183/Tyr185), from Cell Signaling Technology. Then the membranes were incubated with HRP-conjugated secondary antibody (Jackson Immunoresearch, West Grove, PA). Bands were incubated in Amersham ECL Prime Western Blotting Detection Reagent (GE Healthcare) and visualized using the ChemiDoc MP imaging system (Bio-Rad).
# [2] = test system: GP2d (expressing KRas G12D mutant); experiment: Proliferation Assay (Cell Viability Assay); format: cell-based; conditions: Homo sapiens, Proliferation assay, read-out: GP2d IC50 (nM) Colorectal
# Method: (§1) Cell lines: these Human tumor-derived cell lines were purchased from American Type Culture Collection. Human tumor-derived pancreatic cancer cell line MiaPaca-2 (expressing KRAS G12C mutant) and Panc-1 (expressing KRas G12D mutant), and Human non-small cell lung cancer (NSCLC) cell line A549 (expressing KRas G12S mutant), and Human melanoma cell line A375 (wild type Kras) were grown in complete DMEM-High Glucose medium. Human tumor-derived pancreatic cancer cell lines SU86.86 (expressing KRas G12D mutant), BxPC3 (expressing wild type K-Ras), and Human non-small cell lung cancer (NSCLC) cell lines NCI-H441 (expressing KRas G12S mutant), NCI-H1975 (expressing wild type KRas), NCI-H358 (expressing KRas G12C mutant), NCI-H1299 (expressing NRas Q61H mutant), and Human colon cancer cell line SW-620 (expressing KRas G12V mutant), Human triple negative breast cancer cell line HCC-1806 (expressing wild type KRas), and Human tumor-derived multiple myeloma cell line MM.1R (expressing wild type KRAS), were grown in RPMI 1640 medium. Human tumor-derived breast cancer cell line BT-549 (expressing wild type KRAS) was grown in RPMI 1640 medium in the presence of 11.8U insulin. Human tumor-derived pancreatic cancer cell line HPAF-II (expressing KRas G12D mutant), Human triple negative breast cancer cell line BT-20 (expressing wild type KRas), and Human colon cancer cell line LS123 (expressing KRas G12S mutant), were grown in EMEM medium. Human tumor-derived pancreatic cancer cell line CF-PAC1 (expressing KRas G12V mutant) was frown in IMDM medium, and Human colon cancer cell line HT29 (expressing wild type KRas) was grown in McCoy's 5A medium. The colon cancer cell line GP2d (expressing KRas G12D mutant) was purchased from MilliporeSigma and grown in DMEM-High Glucose medium. All cell lines were supplemented with penicillin (100 U/mL), streptomycin (100 μg/mL), and 10% heat-inactivated FBS at 37° C. in a humidified incubator with 5% CO2.
# (§2) Method: Cells were plated at 2000 to 5000 cells/well density in 96-wells plate and cultured overnight. Small molecules that were tested were added to the cells in the final concentration of 10 μM in the presence of 0.3% DMSO and 10% FBS, and incubated for 2-4 days at 37° C. in a humidified incubator with 5% CO2. For IC50 value determination, serial dilutions of compounds were added to cells under the same conditions.
# (§3) Assay: At the end of the incubation period, cell viability was determined using the CellTiter 96® Aqueous One Solution Cell Proliferation Assay according to manufacturer specifications (Promega, Madison, WI). The percentage of small molecules inhibition of cellular proliferation was calculated from raw data.
# [3] = test system: BT-549 (expressing wild type KRAS); experiment: Proliferation Assay (Cell Viability Assay); format: cell-based; conditions: Homo sapiens, BT-549; Proliferation assay, BT549; read-out: BT549 IC50 (nM) TNBC
# Method: as §1, §2, §3
# [4] = test system: MM.1R (expressing wild type KRAS); experiment: Proliferation Assay (Cell Viability Assay); format: cell-based; conditions: Homo sapiens, read-out: MM.1R IC50 (nM) Multiple Myloma
# Method: as §1, §2, §3
# [5] = test system: A375 (wild type Kras); experiment: Proliferation Assay (Cell Viability Assay); format: cell-based; conditions: Homo sapiens, A-375; Proliferation assay, A375; read-out: A375 IC50 (nM) Melanoma
# Method: as §1, §2, §3
# [6] = test system: NCI-H358 (expressing KRas G12C mutant); experiment: Proliferation Assay (Cell Viability Assay); format: cell-based; conditions: Homo sapiens; Proliferation assay, NCI-H358; read-out: NCI-H358 IC50 (nM) NSCLC
# Method: as §1, §2, §3
IC50 [3] [nM],IC50 [4] [nM],IC50 [5] [nM],IC50 [6] [nM],SMILES,% inh of JNK in Panc-1 [1],IC50 [2] [nM]
,,,,"COCC1CCN(c2nc(-c3ccccn3)nn3cc(-c4ccn(C(C)C)n4)c(C)c23)C1 (racemic) [Compound 10, rac 6-(1-Isopropyl-1H-pyrazol-3-yl)-4-(3-(methoxymethyl)pyrrolidin-1-yl)-5-methyl-2-(pyridin-2-yl)pyrrolo[2,1-f][1,2,4]triazine]",E* (E* = 1-30% activation),
10 to 50,< 1,> 50,> 50,"COc1cc(Nc2nc(-c3nccn3C)nn3cc(-c4ccn(C)n4)c(C)c23)ncc1C1CC1 [Compound 238, N-(5-Cyclopropyl-4-methoxypyridin-2-yl)-5-methyl-2-(1-methyl-1H-imidazol-2-yl)-6-(1-methyl-1H-pyrazol-3-yl)pyrrolo[2,1-f][1,2,4]triazin-4-amine]",,> 50
10 to 50,< 1,> 50,> 50,"COc1cc(Nc2nc(-c3nccn3C)nn3cc(-c4ccn(C)n4)c(C)c23)ncc1C [Compound 235, N-(4-Methoxy-5-methylpyridin-2-yl)-5-methyl-2-(1-methyl-1H-imidazol-2-yl)-6-(1-methyl-1H-pyrazol-3-yl)pyrrolo[2,1-f][1,2,4]triazin-4-amine]",,> 50
,,,,"COc1cccc(-c2cn3nc(-c4nccn4C)nc(O)c3c2C)c1Cl [Compound 15, 6-(2-Chloro-3-methoxyphenyl)-5-methyl-2-(1-methyl-1H-imidazol-2-yl)pyrrolo[2,1-f][1,2,4]triazin-4-ol]",F* (F* = 31-74% activation),
,,,,"COc1cc(Nc2nc(-c3ccccn3)nn3cc(-c4ccn(C(C)C)n4)c(C)c23)ncn1 [Compound 13, 6-(1-Isopropyl-1H-pyrazol-3-yl)-N-(6-methoxypyrimidin-4-yl)-5-methyl-2-(pyridin-2-yl)pyrrolo[2,1-f][1,2,4]triazin-4-amine]",H* (H* ≥ 100% activation),
,,,,"COC[C@@H]1CC[C@@H]1CNc1nc(-c2ccccn2)nn2cc(-c3ccn(C(C)C)n3)c(C)c12 (racemic) [Compound 11, rac 6-(1-Isopropyl-1H-pyrazol-3-yl)-N-(((1S,2R)-2-(methoxymethyl)cyclobutyl)methyl)-5-methyl-2-(pyridin-2-yl)pyrrolo[2,1-f][1,2,4]triazin-4-amine]",G* (G* = 75-99% activation),
> 50,< 1,> 50,10 to 50,"Cc1c(-c2ccn(C)n2)cn2nc(-c3nccn3C)nc(Nc3cc4c(cn3)CCO4)c12 [Compound 221, N-(5-Methyl-2-(1-methyl-1H-imidazol-2-yl)-6-(1-methyl-1H-pyrazol-3-yl)pyrrolo[2,1-f][1,2,4]triazin-4-yl)-2,3-dihydrofuro[3,2-c]pyridin-6-amine]",,> 50
,,,,"COCCNc1nc(-c2nccn2C)nn2cc(-c3cccc(OC)c3Cl)c(C)c12 [Compound 16, 6-(2-Chloro-3-methoxyphenyl)-N-(2-methoxyethyl)-5-methyl-2-(1-methyl-1H-imidazol-2-yl)pyrrolo[2,1-f][1,2,4]triazin-4-amine]",F* (F* = 31-74% activation),
,,,,"COc1cccc(Nc2nc(-c3ccccn3)nn3cc(-c4ccn(C(C)C)n4)c(C)c23)n1 [Compound 14, 6-(1-Isopropyl-1H-pyrazol-3-yl)-N-(6-methoxypyridin-2-yl)-5-methyl-2-(pyridin-2-yl)pyrrolo[2,1-f][1,2,4]triazin-4-amine]",F* (F* = 31-74% activation),
,,,,"COC1CCCN(c2nc(-c3ccccn3)nn3cc(-c4ccn(C(C)C)n4)c(C)c23)C1 (racemic) [Compound 12, rac 6-(1-Isopropyl-1H-pyrazol-3-yl)-4-(3-methoxypiperidin-1-yl)-5-methyl-2-(pyridin-2-yl)pyrrolo[2,1-f][1,2,4]triazine]",E* (E* = 1-30% activation),
10 to 50,< 1,> 50,10 to 50,"Cc1c(-c2ccn(C)n2)cn2nc(-c3nccn3C)nc(Nc3cc(N4CCOCC4)ccn3)c12 [Compound 222, 5-Methyl-2-(1-methyl-1H-imidazol-2-yl)-6-(1-methyl-1H-pyrazol-3-yl)-N-(4-morpholinopyridin-2-yl)pyrrolo[2,1-f][1,2,4]triazin-4-amine]",,> 50
